Laboratory results as given in US10835461B2, “Bio-active material composite, preparing method thereof and cosmetic composition containing the same” (priority 2015, dated 2020).

Test: Stability of pure vitamin C and YHC-Vc in aqueous solution (color, pH, vitamin C content) at 50° C. in airtight container for four weeks
Type: physicochemical

pH (In 4 weeks, 50° C., airtight container): 2.52 | pH condition maintained (at 50° C. for 4 weeks): ~2 | remaining amount of vitamin C (in four weeks at 50° C. in airtight container): about 51%
SMILES: O=C1O[C@H]([C@@H](O)CO)C(O)=C1O [vitamin C, ascorbic acid]
change of color (50° C., airtight glass container, four weeks, 3.0 wt % vitamin C solution or 10.0 wt % composite dispersion): abrupt change of color in the order from clear (colorless) to yellow, orange, and then red
